According to patent publication US9637496B2, “Substituted 7-azabicycles and their use as orexin receptor modulators” (priority 2013, dated 2017):
Like-named read-outs stand apart in the source and are kept apart here.

Assays:
rat orexin 1 receptor = rat orexin 1 receptor (Rattus norvegicus (Rat), UniProt P56718); experiment: Rat orexin 1 receptor radioligand binding (competitive binding, HEK293 membranes); details: read-out: rOX1 Ki
human orexin 1 receptor = human orexin 1 receptor (Homo sapiens (Human), UniProt O43613); experiment: Human orexin 1 receptor radioligand binding (competitive binding, CHO membranes); details: read-out: hOX1 Ki
Sequence of human orexin 1 receptor (O43613 whole entry): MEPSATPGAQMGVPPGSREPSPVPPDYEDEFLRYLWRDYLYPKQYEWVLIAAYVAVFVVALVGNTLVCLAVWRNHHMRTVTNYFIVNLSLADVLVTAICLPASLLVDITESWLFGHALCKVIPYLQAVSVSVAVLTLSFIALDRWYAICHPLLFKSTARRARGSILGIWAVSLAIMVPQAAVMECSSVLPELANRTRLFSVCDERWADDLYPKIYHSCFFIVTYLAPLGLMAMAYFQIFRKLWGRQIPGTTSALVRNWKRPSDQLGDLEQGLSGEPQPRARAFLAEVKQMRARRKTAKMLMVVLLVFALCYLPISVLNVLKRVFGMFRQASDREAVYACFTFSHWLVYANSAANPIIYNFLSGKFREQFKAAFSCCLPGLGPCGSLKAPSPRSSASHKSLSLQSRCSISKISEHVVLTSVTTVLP

human orexin 2 receptor = human orexin 2 receptor (Homo sapiens (Human), UniProt O43614); experiment: Human orexin 2 receptor radioligand binding ([3H]-EMPA competition, HEK293 membranes); details: read-out: hOX2 Ki
Sequence of human orexin 2 receptor (O43614 whole entry): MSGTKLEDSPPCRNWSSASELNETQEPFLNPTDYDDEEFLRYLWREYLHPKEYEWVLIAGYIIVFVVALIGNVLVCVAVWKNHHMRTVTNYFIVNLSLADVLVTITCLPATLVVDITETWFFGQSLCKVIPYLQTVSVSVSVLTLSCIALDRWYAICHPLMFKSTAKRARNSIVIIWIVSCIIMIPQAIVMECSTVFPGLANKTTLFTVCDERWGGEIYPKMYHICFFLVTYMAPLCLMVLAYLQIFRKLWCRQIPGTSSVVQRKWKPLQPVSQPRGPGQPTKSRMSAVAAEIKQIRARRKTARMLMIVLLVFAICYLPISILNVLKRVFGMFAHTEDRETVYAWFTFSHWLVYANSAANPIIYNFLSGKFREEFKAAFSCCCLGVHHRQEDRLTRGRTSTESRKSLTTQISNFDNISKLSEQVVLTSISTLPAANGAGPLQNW

[1] = human orexin 2 receptor, Table 2, averages from between 2-20 runs
[2] = rat orexin 1 receptor, Table 2, averages from between 2-20 runs
[3] = human orexin 1 receptor, Table 2, averages from between 2-20 runs
[4] = Table 2, further testing, averages from 2-20 runs

Sequence of rat orexin 1 receptor (P56718 whole entry): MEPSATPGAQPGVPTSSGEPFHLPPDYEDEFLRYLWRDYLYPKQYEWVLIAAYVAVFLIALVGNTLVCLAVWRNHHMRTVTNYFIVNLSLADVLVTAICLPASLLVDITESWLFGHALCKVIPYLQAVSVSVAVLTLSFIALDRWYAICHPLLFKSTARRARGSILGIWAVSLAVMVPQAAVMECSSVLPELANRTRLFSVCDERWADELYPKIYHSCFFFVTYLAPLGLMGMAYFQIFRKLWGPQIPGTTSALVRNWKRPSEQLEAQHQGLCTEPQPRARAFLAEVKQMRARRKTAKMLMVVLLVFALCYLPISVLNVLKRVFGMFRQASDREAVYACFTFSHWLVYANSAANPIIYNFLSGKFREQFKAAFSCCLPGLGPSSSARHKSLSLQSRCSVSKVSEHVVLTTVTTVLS

| Structure (SMILES) | Ki (rat orexin 1 receptor) [nM] | Ki (human orexin 1 receptor) [nM] | Ki (human orexin 2 receptor; [1]) [nM] | Ki (rat orexin 1 receptor; [2]) [nM] | Ki (human orexin 1 receptor; [3]) [nM] | Ki (rat orexin 1 receptor; [4]) [nM] | Ki (human orexin 1 receptor; [4]) [nM] | Ki (human orexin 2 receptor; [4]) [nM] |
| --- | --- | --- | --- | --- | --- | --- | --- | --- |
| O=C(c1cccc(Cl)c1-c1ncccn1)N1[C@@H]2CC[C@H]1[C@H](Nc1cnc(C(F)(F)F)cn1)C2 [Example 300, (3-chloro-2-(pyrimidin-2-yl)phenyl)((1S,2R,4R)-2-((5-(trifluoromethyl)pyrazin-2-yl)amino)-7-azabicyclo[2.2.1]heptan-7-yl)methanone] | 9 | 9 | 93 |  |  |  |  |  |
| Cc1cccc(C(=O)N2[C@@H]3CC[C@H]2[C@H](Nc2ncc(Br)cn2)C3)c1-n1nccn1 [Example 318, ((1S,2R,4R)-2-((5-bromopyrimidin-2-yl)amino)-7-azabicyclo[2.2.1]heptan-7-yl)(3-methyl-2-(2H-1,2,3-triazol-2-yl)phenyl)methanone] | 9 | 13 | 768 |  |  |  |  |  |
| O=C(c1cccc(F)c1-c1ncc(F)cn1)N1[C@@H]2CC[C@H]1[C@H](Nc1cnc(C(F)(F)F)cn1)C2 [Example 398, (3-fluoro-2-(5-fluoropyrimidin-2-yl)phenyl)((1S,2R,4R)-2-((5-(trifluoromethyl)pyrazin-2-yl)amino)-7-azabicyclo[2.2.1]heptan-7-yl)methanone] |  |  | 2100 | 61 | 81 |  |  |  |
| O=C(c1cccc(F)c1-n1nccn1)N1[C@@H]2CC[C@H]1[C@H](Nc1ncc(C(F)(F)F)cc1Cl)C2 [Example 383, ((1S,2R,4R)-2-((3-chloro-5-(trifluoromethyl)pyridin-2-yl)amino)-7-azabicyclo[2.2.1]heptan-7-yl)(3-fluoro-2-(2H-1,2,3-triazol-2-yl)phenyl)methanone] |  |  | 767 | 33 | 16 |  |  |  |
| O=C(c1ncccc1-c1ncccn1)N1[C@@H]2CC[C@H]1[C@H](Nc1ncc(C(F)(F)F)cc1F)C2 [Example 458, ((1S,2R,4R)-2-((3-fluoro-5-(trifluoromethyl)pyridin-2-yl)amino)-7-azabicyclo[2.2.1]heptan-7-yl)(3-(pyrimidin-2-yl)pyridin-2-yl)methanone] |  |  |  |  |  | 46 | 45 | 932 |
| O=C(c1ccccc1-c1ncc(F)cn1)N1[C@@H]2CC[C@H]1[C@H](Nc1ccc(C(F)(F)F)cn1)C2 [Example 374, (2-(5-fluoropyrimidin-2-yl)phenyl)((1S,2R,4R)-2-((5-(trifluoromethyl)pyridin-2-yl)amino)-7-azabicyclo[2.2.1]heptan-7-yl)methanone] | 41 | 31 | 921 |  |  |  |  |  |
| O=C(c1cccc(F)c1-c1ccccn1)N1[C@@H]2CC[C@H]1[C@H](Nc1ccc(C(F)(F)F)cn1)C2 [Example 320, (3-fluoro-2-(pyridin-2-yl)phenyl)((1S,2R,4R)-2-((5-(trifluoromethyl)pyridin-2-yl)amino)-7-azabicyclo[2.2.1]heptan-7-yl)methanone] | 37 | 14 | 260 |  |  |  |  |  |
| Cc1cccc(C(=O)N2C3CCC2C(Nc2cnc(Br)cn2)C3)c1-c1ncco1 [Example 308, ((1S,2R,4R)-2-((5-bromopyrazin-2-yl)amino)-7-azabicyclo[2.2.]heptan-7-yl)(3-methyl-2-(oxazol-2-yl)phenyl)methanone] |  |  | 173 | 6 | 4 |  |  |  |
| O=C(c1cccc(F)c1-n1nccn1)N1[C@@H]2CC[C@H]1[C@H](Nc1ccc(C(F)F)cn1)C2 [Example 388, ((1S,2R,4R)-2-((5-(difluoromethyl)pyridin-2-yl)amino)-7-azabicyclo[2.2.1]heptan-7-yl)(3-fluoro-2-(2H-1,2,3-triazol-2-yl)phenyl)methanone] |  |  | 1100 | 130 | 118 |  |  |  |
| Cc1cnc(-n2nccn2)c(C(=O)N2[C@@H]3CC[C@H]2[C@H](Nc2cnc(C(F)(F)F)cn2)C3)c1 [Example 401, (5-methyl-2-(2H-1,2,3-triazol-2-yl)pyridin-3-yl)((1S,2R,4R)-2-((5-(trifluoromethyl)pyrazin-2-yl)amino)-7-azabicyclo[2.2.1]heptan-7-yl)methanone] |  |  | > 10000 | 196 | 394 |  |  |  |
